Experimental data taken from ChEMBL document CHEMBL1135490, “Naphthalene dicarboxaldehyde as an electrophilic fluorogenic moiety for affinity labeling: application to opioid receptor affinity labels with greatly improved fluorogenic properties” (J Med Chem, 2002).

Target: Mu-type opioid receptor (Homo sapiens, UniProt P35372)
Test: Inhibition of [3H]- diprenorphine binding on Opioid receptor mu 1 expressed in human embryonic kidney (HEK) cells
Type: cell-based

Sequence of Mu-type opioid receptor (P35372 whole entry): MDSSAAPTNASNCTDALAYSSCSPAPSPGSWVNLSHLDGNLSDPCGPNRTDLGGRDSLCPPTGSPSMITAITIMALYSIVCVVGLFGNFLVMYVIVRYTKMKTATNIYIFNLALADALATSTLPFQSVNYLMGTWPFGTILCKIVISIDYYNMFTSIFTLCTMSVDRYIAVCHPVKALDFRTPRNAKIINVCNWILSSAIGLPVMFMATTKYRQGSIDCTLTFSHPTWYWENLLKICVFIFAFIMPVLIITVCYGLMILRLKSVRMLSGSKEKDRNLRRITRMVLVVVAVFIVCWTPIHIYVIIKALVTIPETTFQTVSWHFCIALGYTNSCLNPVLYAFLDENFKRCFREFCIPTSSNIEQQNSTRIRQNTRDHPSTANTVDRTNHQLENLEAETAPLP

O=Cc1cc2ccc(C(=O)N[C@@H]3CC[C@@]4(O)C5Cc6ccc(O)c7c6[C@@]4(CCN5CC4CC4)[C@H]3O7)cc2cc1C=O
Ki: 0.744 nM
